This series concerns SKCO1 cells. The series is described as follows: Activity of mitochondrial ETC complexes I-IV in SKCO1 cells. Conditions: FLVCR1a-silenced vs scramble shRNA SKCO1 cells. The format is cell-based, human. From the text: (A, C, E) Activities of the mitochondrial electron transport chain complexes I-IV. FLVCR1a-silenced Caco2 (A), SKCO1 (C) or C80 cells (E) are compared to cells expressing a scramble shRNA. Results were expressed as nmol NAD^+/min/mg mitochondrial protein for complex I, nmol reduced cytochrome c/min/mg mitochondrial protein for complexes II-III, nmol oxidized cytochrome c/min/mg mitochondrial protein for complex IV. Data represent mean±SEM, n=3. For statistical analyses, an unpaired Student's t-test was used; *=p<0.05, **=p<0.01. (B, D, F) Mitochondrial ATP levels measured by a bioluminescent assay kit. FLVCR1a-silenced Caco2 (B), SKCO1 (D) or C80 cells (F) are compared to cells expressing a scramble shRNA. Results are expressed as nmol/mg mitochondrial proteins. Data represent mean±SEM, n=3. […] Results were expressed as nmol NAD^+/min/mg mitochondrial protein for complex I, nmol reduced cytochrome c/min/mg mitochondrial protein for complexes II-III, nmol oxidized cytochrome c/min/mg mitochondrial protein for complex IV. […] (H) Mitochondrial ATP levels measured by a bioluminescent assay kit in Caco2 cells overexpressing FLVCR1a (indicated as FLVCR1a+) compared to cells stably transduced with an empty vector. Results are expressed as nmol/mg mitochondrial proteins. […]
The activity of mitochondria respiration complexes was measured according to (Wibom et al., 2002).

Take “FLVCR1a shRNA: shRNA specifically down-regulating FLVCR1a without targeting FLVCR1b; pLKO.1 lentiviral clone TRCN0000059599, antisense SEQ ID No.: 2 (antisense TTGCTAATGATGCTGTACTGG; sense CCAGTACAGCATCATTAGCAA)”: the ETC complexes activity result is given as “increased ETC complexes activity”.

(Values after patent US20240285670A1, “THERAPEUTIC TREATMENT OF TUMORS BY BLOCKING THE HEME SYNTHESIS-EXPORT AXIS” (Università degli Studi di Torino, priority 2021, published 2024).)
